Test [1] deals with T1, Macrophage migration inhibitory factor (Homo sapiens) (UniProt P14174).
T1 sequence (whole entry): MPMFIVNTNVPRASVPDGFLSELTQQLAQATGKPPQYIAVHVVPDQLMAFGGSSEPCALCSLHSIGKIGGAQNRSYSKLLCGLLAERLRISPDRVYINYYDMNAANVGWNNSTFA
The test can be described thus: Inhibition of recombinant human macrophage migration inhibitory factor binding to human ectodomain CD74 at 0.1 to 2.5 uM.

A further test deals with Plasmodium falciparum. Put plainly: Inhibition of purified full-length biotinylated-Plasmodium falciparum macrophage migration inhibitory factor binding to human sCD74 at 2.5 uM after 45 mins.

SMILES strings stand for the structures. The source made the active and inactive calls. The rule behind the calls is not given here.

Broadly, the inhibition is the share of the control response that was lost under treatment.

`Cc1cc(Oc2cccc(O)c2)cc(-c2ccccc2)n1`: the inhibition result in test [1] was “inactive”. In addition, in the test on Plasmodium falciparum, the inhibition amounted to 25%.

As to `COc1ccc(-c2cc(Oc3cc(C)cc(OC)c3)cc(C)n2)cc1`, the inhibition entry in test [1] was “inactive”. In addition, the inhibition in the test on Plasmodium falciparum is 75%.

The values above are taken from ChEMBL document CHEMBL3351687, “Crystallographic and receptor binding characterization of Plasmodium falciparum macrophage migration inhibitory factor complexed to two potent inhibitors” (J Med Chem, 2014).
